Experimental data published in patent US20200281209A1, “STABILIZED EMULSIONS” (Suncor Energy Inc., priority 2016, published 2020).

Assay: Emulsification test after simulated long term storage at 50° C. (Testing Example 6)
Type: physicochemical
Details: for re-emulsification compared with composition with no biocide: after storage at 50° C. for 32 and 70 days
Experimental: Where required, solutions were preheated to aid in dissolution of surfactants. Once the various components had been dissolved into solution, final oil-in-water emulsion composition were blended using high shear mixing (Polytron, Brinkmann Instruments). For solutions containing monomeric surfactants, solutions were subjected to high shear mixing for 5 minutes, while solutions containing polymeric surfactants were subjected to high shear mixing for 15 minutes. Once blending was completed, samples were assessed for quality of emulsification and then placed at 50° C. for up to 70 days, with additional assessments occurring at different time points throughout the storage period. Quality of emulsification was assessed using the method described below. Samples were placed at 50° C. to accelerate storage stability testing, as 4 weeks at 50° C. is representative of 2 years at ambient temperature (CIPAC MT 46.3). The following method was used to evaluate the tested emulsions. The method was performed using a 100 mL graduated cylinder and a pipette (capable of measuring at least 1 mL). The oil-in-water emulsion compositions evaluated in this example were tested as follows: • 1. If ready-to-use spray oil solutions were under storage conditions (e.g., storage for two weeks at 54° C.), the solution was shaken to allow the contents to re-emulsify. • 2. A graduated cylinder was filled with 100 mL of an oil-in-water emulsion composition, and the amount was adjusted as necessary using a pipette. The test solution was allowed to sit for 15 minutes to permit the emulsion to break and to let the majority of the foam generated in step 1 (FIG. 1A) to disappear before moving to step 3. […] The foam should be allowed to settle before inverting cylinders. Even with inversion of cylinders (vs. shaking), some foaming can occur (FIG. 1(B)). • 3. A stopper was placed on the graduated cylinder and the graduated cylinder was inverted 10 times. It was important to invert and not shake the cylinder to prevent excess foaming. • 4. […] Rating were based on the following scale (1-10). […] Specifically, FIG. 2 is an example of an oil-in-water emulsion composition with a rating of 10 (best) at five minutes after inversion. The solution is a homogeneous, milky emulsion (left) and lacks an oil layer or creaming on the surface (right). […] The solution is a homogeneous, milky emulsion (left), but with creaming and some oil coalescence on surface (right). Finally, FIG. 4 is an example of an oil-in-water emulsion composition with a rating of 1 (worst) at five minutes after inversion. The solution has a cloudy appearance, lacks a homogeneous, milky emulsion (left), and has a layer of large, coalesced oil deposits at the surface of the solution (right). The figures were used in the examples described herein as a reference only.

[1] = Base oil Group III, Alcohol ethoxylate/alkyl glyceride, 70 days of storage (50° C.), 10 = best, 1 = worst

## COC(=O)c1ccc(O)cc1 [Methyl paraben, methyl paraben]
[1]
  Emulsion Rating (1-10): 5
  re-emulsification compared with composition with no biocide: improved re-emulsification

## CCCOC(=O)c1ccc(O)cc1 [Propyl paraben, propyl paraben]
[1]
  Emulsion Rating (1-10): 5
  re-emulsification compared with composition with no biocide: improved re-emulsification

## O=C([O-])c1ccccc1.[Na+] [Sodium benzoate, sodium benzoate]
[1]
  Emulsion Rating (1-10): 6
  re-emulsification compared with composition with no biocide: improved re-emulsification

## C/C=C/C=C/C(=O)O [sorbic acid, reference compound]
  re-emulsification compared with composition with no biocide: comparable or worse emulsification quality

## O=C(O)c1ccccc1 [Benzoic acid, benzoic acid]
Base oil Group I, Alcohol ethoxylate/alkyl glyceride, 70 days of storage (50° C.)
  Emulsion Rating (1-10): 6
Base oil Group II, Alcohol ethoxylate/alkyl glyceride, 70 days of storage (50° C.)
  Emulsion Rating (1-10): 7
[1]
  Emulsion Rating (1-10): 7
Base oil Group III, Alkyl polysaccharide, 27 days of storage (50° C.)
  Emulsion Rating (1-10): 8
Base oil Group III, Block copolymer, 27 days of storage (50° C.)
  Emulsion Rating (1-10): 8
Base oil Group III, Polyoxyethylene amine quarternary/alkyl glyceride, 27 days of storage (50° C.)
  Emulsion Rating (1-10): 4
Base oil Group III, Random polymeric/Block copolymer, 64 days of storage (50° C.)
  Emulsion Rating (1-10): 5
Base oil Group IV, Alcohol ethoxylate/alkyl glyceride, 70 days of storage (50° C.)
  Emulsion Rating (1-10): 6
  re-emulsification compared with composition with no biocide: improved re-emulsification
Alcohol ethoxylate, amine alkybenzenesulfonate (anionic), polyoxyethylene amine quarternary (cationic) or polyethylene glycol
  effect on re-emulsification, single surfactant: no impact
Alkyl glyceride, random polymeric, sorbitan monooleate, sorbitan fatty acid ester, or dodecyl phenol
  effect on re-emulsification, single surfactant: negatively affected
Block copolymer or alkyl polysaccharide surfactant
  effect on re-emulsification, single surfactant: improved re-emulsification
Dodecyl phenol + alcohol ethoxylate, alcohol ethoxylate + amine alkylbenzenesulfonate (anionic), sorbitan monooleate + polyoxyethylene (20) sorbitan monooleate
  effect on re-emulsification, surfactant pairs: no impact
Group I, group II, group III, and group IV (poly-alpha-olefins) base oils
  re-emulsification compared with compositions without benzoic acid: improved re-emulsification
Polyethylene glycol monostearate + alkyl glyceride, alkyl polysaccharide + alkyl glyceride
  effect on re-emulsification, surfactant pairs: negatively affected
Random polymeric + block copolymer (64 days), polyoxyethylene amine quarternary + alkyl glyceride (27 days), alcohol ethoxylate + alkyl glyceride (70 days), 50° C.
  effect on re-emulsification, surfactant pairs: improved re-emulsification
